Experimental findings from patent US20040067241A1, “Comtrol a/k/a Virex antiviral composition” (priority 2002, published 2004) are described below.

Molecules are shown by their SMILES.

The conditions of the data set: 75 mg/kg/day i.n.

In the case of `NC(=O)c1ncn([C@@H]2O[C@H](CO)[C@@H](O)[C@H]2O)n1` [Ribavirin], where the note is “bid x 5, uninfected mice”, the “Tox Controls Surv/Total” value is reported as 3/3. Besides, the “Tox Controls Mean Host Weight Change” value (initial weight vs weight 18 h after final treatment) is -1.7 g.
